# From patent US11519913B2, “Metabolic disorder target” (University of Pittsburgh—Of the Commonwealth System of …, priority 2016, dated 2022)
# Tested on: kinases
# Test: Streamlined CETSA / dMS workflow with staurosporine
# Type: binding
# Settings: staurosporine treated vs untreated samples
# Source text: Initial experiments were designed to employ the ATP inhibitor staurosporine. Staurosporine is well documented as binding several different kinases, and so offers an a priori known binding event for study and method workup. The workflow for CETSA was streamlined. These improvements are based on two advantages: the use of factory made long heated columns for excellent chromatographic, and therefore sample to sample reproducibility, and the cloud computing platform, Chorus, which allows for the alignment and quantification of hundreds of thousands of mass spectrometric signals without the need to first identify said signals, see U.S. Pat. No. 6,906,320 “Mass Spectrometry Data Analysis Techniques,” incorporated herein by reference.
# In the staurosporine analysis, the dMS workflow detected 270,822 features that were associated with 108,594 isotope groups. […] An important and distinguishing feature of the dMS workflow is that results are ranked on the basis of the quantitative data, and significant features may then be identified directly by reanalysis of the sample and acquisition of a MS2 spectrum with a retention time and m/z that matches the features of interest. This quantify first, identify second strategy greatly enhances the depth and precision of proteomic analysis compared to workflows that emphasize peptide identification rates. […]
compound,measurement,value
CN[C@@H]1C[C@H]2O[C@@](C)([C@@H]1OC)n1c3ccccc3c3c4c(c5c6ccccc6n2c5c31)C(=O)NC4 [staurosporine],"Features at significance lower than p<0.0001, drug treated versus vehicle, that belong to kinases",13 out of 16 belonged to kinases
